Data on one substance can be found in paper PMC5238392, “Origin of anti-tumor activity of the cysteine-containing GO peptides and further optimization of their cytotoxic properties” (Scientific Reports, 2017).

The test system of test [1] is human breast carcinoma cell line ZR-75-1. Kind of test: MTS cell viability assay, ZR-75-1.
Protocol: As a next step, we used MTS assay[27] to examine the effect of GO peptides on the viability of the four described cell cultures as a function of different treatment schemes. […] This treatment regimen is labeled 4 × 5 underneath the graph. Alternatively, we introduced 5 μM of peptide daily while exchanging the medium (denoted 4/5). Unlike the previous protocol, it avoids potential build-up of the peptide in the medium.
The treatment protocols are: 4 × 5 – four daily doses of 5 μM delivered without exchanging the growth medium; 4/5 – four daily doses of 5 μM delivered with exchanged growth medium; 1 × 5, 1 × 10, 1 × 15, and 1 × 20 – a single dose of 5, 10, 15, or 20 μM, respectively. MTS reagent was added to the wells 96 h after the first (and sometimes the only) application of the peptide and the optical density at 492 nm was measured to determine the fraction of the surviving cells.
The data are according to the MTS assay, where the optical density was measured 96 h after the application of the peptide.
Cell survival was measured using CellTiter 96 AQueous One Solution Cell Proliferation Assay (MTS test, Promega, USA). Cells have been seeded in a 96-well flat-bottom plate in 100 μl of culture medium (10^3 cells/well for A549, HT-1080, dermal fibroblasts and eMSC or 5 × 10^3 cells/well for ZR-75-1) and allowed to attach for 24 h. The starting amount of cells was chosen to account for their growth rate and degree of spreading such as to avoid excessive dilution in the beginning of the experiment or control cell overgrowth toward the end. After 24 h, 10 μl of peptide stock solution or PBS (control) were added to the wells. After 96 h, 20 μl of the MTS-reagent were added to each well and 1–2 h later optical density was measured at the wavelength 492 nm using the 96-well plate reader (Titertek Multiskan, Labsystems, Finland). All experiments were conducted in duplicate or triplicate.
The test system of test [2] is HT-1080 cells. The test can be described thus: Rhodamine 123 mitochondrial membrane potential, HT-1080. In kind it is cell-based, human. An excerpt: In broad terms, apoptosis is classified into two fundamental modes: mitochondrial pathway and death receptor pathway. In the former mechanism, apoptotic signals lead to a loss of mitochondrial membrane potential, termination of mitochondrial ATP synthesis, overproduction of reactive oxygen species (ROS) and their release into cytosol along with a number of pro-apoptotic proteins that are normally confined to the intermembrane space of the mitochondria. To determine whether this mechanism is relevant for GO-203-induced cell death, we have analyzed the time variation of mitochondrial membrane potential and cellular level of ROS over the time interval of 2 h following the addition of the peptide. Toward this goal, the cells were preloaded with Rhodamine 123 or carboxy-H2DCFDA fluorescent dyes, then washed, suspended in the growth medium, and treated with GO-203. The fluorescence was measured concurrently with the side angle light scatter.
Only at 90–100 min we observe a moderate decrease of the fluorescence signal from the treated cells, which indicates the drop in mitochondrial membrane potential. As discussed above, the onset of apoptosis in HT-1080 occurs considerably earlier than that. […] Therefore we assume that mitochondrial membrane permeabilization (MMP) occurs relatively late in the game and is unlikely to be a key element of the GO-203-induced apoptosis.
Finally, the same experimental scheme as described above for H2DCFDA/DCFDA measurements was also used with Rhodamine 123. […] The same observation has been made for ZR-75-1.
(§1) The cells were seeded into 35-mm Nunc culture dishes (Thermo Scientific, USA) at 1.2 × 10^5 cells per dish and allowed to attach for 24 h. […] After that GO-203 was added directly to the suspension and cell fluorescence was measured by flow cytometry at multiple time points during the following 2 hours. […] Cell fluorescence was then immediately measured by flow cytometry. […]

For test [3], the system named is HT-1080 cells. The test can be described thus: Cell cycle phase distribution, HT-1080. The class given is cell-based, human. The conditions noted are these: 24 h incubation with 5 μM. As for the experimental part:
The onset and the progression of the apoptosis are relatively fast, on the time scale of 1 h. […] Indeed, the cell cycle phase distribution remains unaffected by addition of the peptide. For example, in the untreated (control) HT-1080 sample the distribution between G0/G1, S, and G2/M phases is 52%, 23% and 26%, respectively. After 24 h incubation with 5 μM GO-203 this proportion is essentially unchanged at 50%, 24%, and 27%.
The adherent cells were rinsed with PBS, harvested using trypsin-EDTA solution and suspended in the growth medium. To analyze cell cycle phase distribution, 200 μg/ml of saponin (Fluka, USA), 250 μg/ml RNase A, and 50 μg/ml of propidium iodide (both Sigma-Aldrich, USA) were added to each sample tube, thus obtaining DNA stain buffer. After 1 h incubation at room temperature, the samples were analyzed by flow cytometry. To detect apoptosis by flow cytometry, CellEvent Caspase-3/7 Green Flow Cytometry Assay Kit (Thermo Fisher Scientific, USA) and Annexin-V FITC conjugate (BD Biosciences, USA) in combination with propidium iodide have been employed following the manufacturer’s protocols.
Figure S2. Cell cycle distribution for (A) HT-1080 cells treated with one-time dose of 5 μM GO-203 and (B) ZR-75-1 cells treated with one-time dose of 10 μM GO-203. The peptide concentrations have been chosen such as to induce significant cytotoxic effect without causing massive cell death. The data were taken 24 h after the application of the peptide.
Figure S3. H2DCFDA/DCFDA experiment to assess the level of ROS in (A) HT-1080 cells after 30 min incubation with 5 μM GO-203 and (B) ZR-75-1 cells after 30 min incubation with 10 μM GO-203. A statistically significant difference in the intensity of DCF fluorescence response is marked by an asterisk. […]

Test [4] deals with ZR-75-1 cell line. Kind of test: H2DCFDA intracellular ROS measurement, ZR-75-1. The class given is cell-based, human. The conditions noted are these: 10 μM, 30 min incubation, control 100 ± 11, mean and SD, below statistical significance. As to the method: Having established these premises, we repeated the measurements using the ROS-sensitive probe H2DCFDA instead of DCFDA. We have observed small, but statistically significant difference between the HT-1080 cells treated by GO-203 and control cells. Specifically, 30 min after application of the peptide the fluorescence signal from the treated cells was ca. 20% lower than the control, 82 ± 6 vs. 100 ± 7 (arbitrary units). The drop in fluorescence from cells that have been treated with GO-203 should be unequivocally attributed to the decreased level of ROS. The effect is small and unlikely to be the source of GO-203 cytotoxic activity. […] The detected drop in ROS level was below the level of statistical significance, 98 ± 3 vs. 100 ± 11 (see Fig. S3). […]
as §1
Cell fluorescence was measured using CytoFLEX (Beckman Coulter, USA) flow cytometer equipped with 3 lasers (405, 488 and 633 nm). […] Mean fluorescence intensity from 10,000 cells was acquired. […]

Setting [5] is: suspended HT-1080, one-time 5 μM dose.

With “[R]9CQCRRKN [GO-203, in clinical trials]”, the “Cell viability (MTS)” value is on record as “essentially inconsequential” in test [1] (1 × 5: single dose of 5 μM, 96 h); “substantially cytotoxic” in test [1] (1 × 20: single dose of 20 μM, 96 h); “inefficient” in test [1] (4/5: four daily doses of 5 μM with exchanged growth medium, 96 h); “considerable damage” in test [1] (4 × 5: four daily doses of 5 μM without exchanging growth medium, OD 492 nm 96 h after first application). Moreover, the “Mitochondrial membrane potential (Rhodamine 123)” value in test [2] (HT-1080, 30 min after application, same scheme as H2DCFDA/DCFDA measurements) is given as “fully maintained”. Also, the “Time for which mitochondrial retention of Rhodamine 123 remains the same as control” value in test [2] (setting [5]) is on record as “at least 70 min”. In addition, the “Time of moderate decrease of Rhodamine 123 fluorescence (drop in mitochondrial membrane potential)” value in test [2] (setting [5]) was 90 to 100 min. Also, the “cells in S phase” value in test [3] (control 23%) turned out to be 24%. For the same substance, the “cells in G2/M phase” value in test [3] (control 26%) is recorded as 27%. Besides, the “cells in G0/G1 phase” value in test [3] (control 52%) is given as 50%. Moreover, in test [4], the “H2DCFDA fluorescence signal (ROS level)” value came out at 98 ± 3 arbitrary units.
